Data on seven compounds can be found in publication PMC11289651, “Ruthenium(II) complexes of curcumin and β-diketone derivatives: effect of structural modifications on their cytotoxicity” (Royal Society Open Science, 2024).

Common to all, as to format: cell-based
In data set [1] the test system is MRC-5 (non-tumour lung fibroblast). Nature of the data set: MTT cytotoxicity assay, MRC-5. Conditions: read-out: IC50 MRC-5. How it is done: (§1) HTB-26), MCF-7 (hormone-dependent breast cancer, ATCC: HTB−22), A549 (lung cancer, ATCC: CCL-185) and A2780cis (cisplatin-resistant ovarian cancer), and the non-tumour cell lines: MCF-10A (breast epithelial cells, ATCC: CRL-10317) and MRC-5 (lung fibroblast, ATCC: […] All the cells were maintained at 37°C in a humidified incubator with a 5% CO2 atmosphere. […] Then, the cells were treated with the compounds, solubilized in DMSO, at different concentrations and the plates were incubated for 48 h. To solubilize cisplatin, dimethylformamide (DMF) was used. The percentage of DMSO and DMF used in the assay was 0.5%. Afterwards, 50 μl of MTT (0.5 mg ml^−1 in phosphate-buffered saline) was added to each well of the plate and the plates were incubated for 4 h at 37°C. Then, the culture medium was removed, and the water-insoluble formazan crystals formed were solubilized by the addition of 100 μl isopropanol. The absorbance was recorded at 540 nm using a microplate reader. The half maximal inhibitory concentration (IC50) values were obtained using the GRAPHPAD PRISM software.

The test system of data set [2] is MCF-10A (non-tumour breast epithelial cells). Nature of the data set: MTT cytotoxicity assay, MCF-10A. The settings on record: read-out: IC50 MCF-10A. How it is done:
as §1

The subject of data set [3] is MDA-MB-231 (triple-negative breast cancer). Nature of the data set: MTT cytotoxicity assay, MDA-MB-231. Conditions: for IC50: read-out: IC50 MDA-MB-231; for SI^1 = IC50 (MCF-10A)/IC50 (MDA-MB-231): selectivity index. As to the method: as §1
The subject of data set [4] is A549 (lung cancer). In words: MTT cytotoxicity assay, A549. Conditions: for IC50 of cisplatin fold higher than IC50 of the complex: A549 cells; for IC50: read-out: IC50 A549; for SI^4 = IC50 (MRC-5)/IC50 (A549): selectivity index, column head prints IS^4. As to the method:
as §1

Data set [5] relates to A2780cis (cisplatin-resistant ovarian cancer). Nature of the data set: MTT cytotoxicity assay, A2780cis. The settings on record: for IC50: read-out: IC50 A2780cis; for SI^3 = IC50 (MRC-5)/IC50 (A2780cis): selectivity index, column head prints IS^3. How it is done: as §1
The test system of data set [6] is MCF-7 (hormone-dependent breast cancer). In words: MTT cytotoxicity assay, MCF-7. Conditions: for IC50 fold lower than that of cisplatin: MCF-7 cells; for IC50: read-out: IC50 MCF-7; for SI^2 = IC50 (MCF-10A)/IC50 (MCF-7): selectivity index. As to the method:
as §1

The test system of data set [7] is MDA-MB-231, MCF-7, A549, A2780cis, MRC-5 and MCF-10A cell lines. Nature of the data set: MTT cytotoxicity assay, all cell lines studied. The settings on record: tested concentrations (<100 µM).
Procedure: The MDA-MB-231, A549 and MRC5 cell lines were cultured in Dulbecco’s modified eagle medium (DMEM) containing 10% fetal bovine serum (FBS), penicillin (100 IU ml^−1), streptomycin (100 mg ml^−1) and L-glutamine (2 mM). The MCF-7 and A2780cis cells were grown in the Roswell Park Memorial Institute (RPMI) containing 10% FBS, penicillin (100 IU ml^−1), streptomycin (100 mg ml^−1) and L-glutamine (2 mM). The MCF-10A cells were grown in DMEM nutrient mixture F-12 (DMEM F-12) containing 5% fetal horse serum, epidermal growth factor (EGF) (20 ng ml^−1), hydrocortisone (0.5 µg ml^−1), insulin (0.01 mg ml^−1), 1% penicillin and 1% streptomycin. All the cells were maintained at 37°C in a humidified incubator with a 5% CO2 atmosphere.
The cytotoxic activities of the free ligands and complexes were analysed by MTT (3-[4,5-dimethylthiazol-2-yl]-2,5 diphenyl tetrazolium bromide) assay [32]. For that, cells were plated in 96-well plates (1.5 × 10^4 cells well^−1) and kept for 24 h in an incubator with 5% CO2 and 37°C for adherence. Then, the cells were treated with the compounds, solubilized in DMSO, at different concentrations and the plates were incubated for 48 h. […] The percentage of DMSO and DMF used in the assay was 0.5%. […] The absorbance was recorded at 540 nm using a microplate reader.
The mark [8] stands for this setting: Homo sapiens, MRC5, MTT, 48 h incubation.
Setting [9] is: Homo sapiens, MCF-10A, MTT, 48 h incubation.
Where [10] appears, read: Homo sapiens, MDA-MB-231, MTT, 48 h incubation.
The mark [11] stands for this setting: Homo sapiens, A549, MTT, 48 h incubation.
[12] abbreviates: Homo sapiens, MCF7, MTT, 48 h incubation.

Like-named read-outs stand apart in the source and are kept apart here.

With `CC(=O)C=C(C)[O-].F[P-](F)(F)(F)(F)F.[Ru+2].c1ccc(-c2ccccn2)nc1.c1ccc(P(c2ccccc2)c2ccccc2)cc1.c1ccc(P(c2ccccc2)c2ccccc2)cc1` [Ru1, [Ru(acac)(PPh3)2(bipy)]PF6], the IC50 in data set [1] (MTT, 48 h incubation) worked out at 4.92 µM; in data set [2] (MTT, 48 h incubation) it was 1.7 µM; in data set [3] (MTT, 48 h incubation), 2.09 ± 0.46 µM; in data set [4] (MTT, 48 h incubation), 1.43 µM; in data set [5] (MTT, 48 h incubation) it was 0.59 µM; in data set [6] (MTT, 48 h incubation), 1.86 µM. The “SI^1 = IC50 (MCF-10A)/IC50 (MDA-MB-231)” value in data set [3] worked out at 0.81. Moreover, the “IC50 of cisplatin fold higher than IC50 of the complex” value in data set [4] turned out to be 8 fold. Moreover, the “SI^4 = IC50 (MRC-5)/IC50 (A549)” value in data set [4] is listed as 3.44. Also, the “SI^3 = IC50 (MRC-5)/IC50 (A2780cis)” value in data set [5] is on record as 8.34. Further, the “IC50 fold lower than that of cisplatin” value in data set [6] is listed as 7.5 fold. For the same compound, the “SI^2 = IC50 (MCF-10A)/IC50 (MCF-7)” value in data set [6] stood at 0.91.
In the case of `F[P-](F)(F)(F)(F)F.O=C(C=C([O-])c1ccccc1)c1ccccc1.[Ru+2].c1ccc(-c2ccccn2)nc1.c1ccc(P(c2ccccc2)c2ccccc2)cc1.c1ccc(P(c2ccccc2)c2ccccc2)cc1` [Ru2, [Ru(dbm)(PPh3)2(bipy)]PF6], the IC50 in data set [1] (MTT, 48 h incubation) came to 4.85 µM; in data set [2] (MTT, 48 h incubation), 1.71 µM; in data set [3] (MTT, 48 h incubation), 3.37 µM; in data set [4] (MTT, 48 h incubation), 1.06 µM; in data set [5] (MTT, 48 h incubation) it was 0.39 µM; in data set [6] (MTT, 48 h incubation), 1.74 µM. Besides, the “SI^1 = IC50 (MCF-10A)/IC50 (MDA-MB-231)” value in data set [3] worked out at 0.50. Further, the “IC50 of cisplatin fold higher than IC50 of the complex” value in data set [4] came out at 11 fold. In addition, the “SI^4 = IC50 (MRC-5)/IC50 (A549)” value in data set [4] was 4.57. Besides, in data set [5], the “SI^3 = IC50 (MRC-5)/IC50 (A2780cis)” value was found to be 12.43. In data set [6], the “IC50 fold lower than that of cisplatin” value was determined as 8.0 fold. The “SI^2 = IC50 (MCF-10A)/IC50 (MCF-7)” value in data set [6] is given as 0.98.
For the compound `COc1cc(C=CC(=O)C=C([O-])C=Cc2ccc(O)c(OC)c2)ccc1O.F[P-](F)(F)(F)(F)F.[Ru+2].c1ccc(-c2ccccn2)nc1.c1ccc(P(c2ccccc2)c2ccccc2)cc1.c1ccc(P(c2ccccc2)c2ccccc2)cc1` [Ru3, [Ru(cur)(PPh3)2(bipy)]PF6], the IC50 in data set [1] (MTT, 48 h incubation) is above 30 µM; in data set [2] (MTT, 48 h incubation) it was 6.41 µM; in data set [3] (MTT, 48 h incubation), 6.8 µM; in data set [4] (MTT, 48 h incubation), above 30 µM; in data set [5] (MTT, 48 h incubation), 0.82 µM. In data set [3], the “SI^1 = IC50 (MCF-10A)/IC50 (MDA-MB-231)” value came to 0.94. For the same compound, the “SI^2 = IC50 (MCF-10A)/IC50 (MCF-7)” value in data set [6] amounted to 0.45.
For the compound `CC(=O)CC(C)=O` [acac, acetylacetonate], the IC50 is above 100 µM in data set [1] (setting [8]); above 100 µM in data set [2] (setting [9]); above 100 µM in data set [3] (setting [10]); above 100 µM in data set [4] (setting [11]); above 100 µM in data set [5] (A2780cis, MTT, 48 h incubation); above 100 µM in data set [6] (setting [12]). Also, the “cytotoxic activity (in words)” value in data set [7] is “did not exhibit activity”.
Regarding `N.N.[Cl][Pt][Cl]` [cisplatin, cis-diamminedichloridoplatinum(II)], the IC50 came to 29.4 µM in data set [2] (MTT, 48 h incubation); 10.2 µM in data set [3] (MTT, 48 h incubation); 14 µM in data set [6] (MTT, 48 h incubation).
Take `COc1cc(/C=C/C(=O)CC(=O)/C=C/c2ccc(O)c(OC)c2)ccc1O` [cur, curcumin]: the IC50 was determined as 8.99 µM in data set [1] (setting [8]); 16.9 µM in data set [2] (setting [9]); 29.7 µM in data set [3] (setting [10]); 33.3 µM in data set [4] (setting [11]); 4.02 µM in data set [5] (A2780cis, MTT, 48 h incubation); 20 µM in data set [6] (setting [12]). In addition, in data set [3], the “SI^1 = IC50 (MCF-10A)/IC50 (MDA-MB-231)” value amounted to 0.57. For the same compound, the “SI^4 = IC50 (MRC-5)/IC50 (A549)” value in data set [4] was 0.27. In addition, the “SI^3 = IC50 (MRC-5)/IC50 (A2780cis)” value in data set [5] is reported as 2.24. Also, in data set [6], the “SI^2 = IC50 (MCF-10A)/IC50 (MCF-7)” value is recorded as 0.84.
For `O=C(CC(=O)c1ccccc1)c1ccccc1` [dbm, dibenzoylmethane], the IC50 in data set [1] (Homo sapiens, MRC5, 48 h) came to 9.54 µM; in data set [2] (Homo sapiens, MCF-10A, 48 h) it was 50.7 µM; in data set [3] (Homo sapiens, MDA-MB-231, 48 h), 59.6 µM; in data set [4] (Homo sapiens, A549, 48 h) it was 23.1 µM; in data set [5] (A2780cis, 48 h) it was 62.6 µM; in data set [6] (Homo sapiens, MCF7, 48 h) it was 11.7 µM. In data set [3], the “SI^1 = IC50 (MCF-10A)/IC50 (MDA-MB-231)” value is 0.85. Further, the “SI^4 = IC50 (MRC-5)/IC50 (A549)” value in data set [4] is 0.41. Moreover, the “SI^3 = IC50 (MRC-5)/IC50 (A2780cis)” value in data set [5] is 0.15. The “SI^2 = IC50 (MCF-10A)/IC50 (MCF-7)” value in data set [6] worked out at 4.34.
